{"source": "patent US9126999B2", "about": "“Tetrahydropyrazolopyrimidine compounds” (EISAI R&D MANAGEMENT CO., LTD., priority 2012, dated 2015)", "tested_on": "DBA/1 mice", "assay": "Pristane: DBA/1 strain lupus disease model", "assay_type": "in vivo, mouse", "description": "Figure Legend: Female DBA/1 mice at 10-11 weeks of age were given an intraperitoneal injection of 0.5 ml pristane or PBS. Once-a-day oral dosing with Vehicle (Veh; 0.5% methyl-cellulose) or 300 mg/kg ER-892887 was begun 3.5 months after pristane injection for a total of 3 months treatment. (A) Mice were euthanized after 3 months of compound treatment, and anti-dsDNA and anti-RiboP titers were measured in blood plasma samples by ELISA (statistical significance determined by Mann-Whitney test). (B) Arthritis development was assessed monthly by visual scoring. (C) The expression of IFN-regulated genes in whole blood was measured by a qPCR panel after 3 months of treatment, and an IFN gene signature score was calculated (see Pharmacology Materials and Methods section for details regarding IFN score calculation).\nFigure Legend: Female DBA/1 mice at 11-12 weeks of age were given an intraperitoneal injection of 0.5 ml of pristane or PBS. Once-a-day oral dosing with Vehicle (Veh; 0.5% methyl-cellulose) or 33, 100, or 300 mg/kg ER-892887 was begun 2 months after pristane injection for a total of 3 months treatment. Mice were euthanized after 3 months of compound treatment, and anti-dsDNA (A), -RiboP (B), -Sm/nRNP (C), and -Histone (D) titers were measured in blood plasma samples by ELISA (statistical significance determined by Mann-Whitney test). (E) Summary of mortality observed in the study during 3 months of compound treatment. (F) The expression of IFN-regulated genes in whole blood was measured by a qPCR panel at the last time point for Vehicle and 300 mg/kg ER-892887 treated mice, and an IFN gene signature score was calculated (see Pharmacology Materials and Methods section for details regarding IFN score calculation).\nFigure Legend: Female DBA/1 mice at 11 weeks of age were given an intraperitoneal injection of 0.5 ml pristane or PBS. Once-a-day oral dosing with Vehicle (Veh; 0.5% methyl-cellulose) or 300 mg/kg ER-892887, 100 mg/kg hydroxychloroquine, 1 mg/kg prednisolone or 100 mg/kg mycophenolate was begun 2 months after pristane injection and continued for 3 months of treatment. (A) At the end of the 3 month treatment arthritis development was assessed by visual scoring of swelling and inflammation. (B) Mice were euthanized after 3 months of compound treatment, and anti-dsDNA, anti-histone, anti-Sm/RNP and anti-RiboP titers were measured in blood plasma samples by ELISA (statistical significance determined by Mann-Whitney test). ELISA values falling above or below the range of the standard curve were assigned a value equal to the highest or lowest valid measurement, as appropriate. (C) The expression of IFN-regulated genes in whole blood was measured by a qPCR panel after 3 months of treatment. […] (D) IFN scores of genes regulated by pristane in this experiment are shown.\nFIG. 14 presents the effect of compound ER-892887 on arthritis and autoantibodies in the Pristane: DBA/1 strain lupus disease model. Figure Legend: Female DBA/1 mice at 10 weeks of age were given an intraperitoneal injection of 0.5 ml pristane or PBS. At 22 weeks of age, mice were randomized into groups with equivalent median anti-dsDNA titers and treated with Vehicle (Veh; 0.5% methyl-cellulose) alone or 300 mg/kg ER-892887 once-a-day orally (QD PO). Arthritis symptoms (swelling and inflammation) were recorded monthly by blinded observers. All mice were sacrificed at 34 weeks of age (12 weeks of treatment) and blood plasma autoantibody titers were determined by ELISA. Prior to termination paws were x-rayed and scored for bone damage and erosions by two blinded analysts. (A) Top—Arthritis scores were calculated monthly in vehicle and compound dosed-groups. (A) Bottom—X-ray scores were calculated after three months of treatment. (B) Autoantibody titers were measured in terminal blood plasma samples by ELISA (statistical significance determined by Mann-Whitney test). […]", "note": "Entries after “also recorded” stand apart in the source; their conditions may differ."}
{"smiles": "COc1ccc([C@@H]2C[C@H](C(F)(F)F)n3nc(-c4ccc(C(=O)N5CCNCC5)cc4)cc3N2)cc1OC", "note": "[ER-892887, (4-((5S,7R)-5-(3,4-dimethoxyphenyl)-7-(trifluoromethyl)-4,5,6,7-tetrahydropyrazolo[1,5-a]pyrimidin-2-yl)phenyl)(piperazin-1-yl)methanone]", "values": [{"measurement": "IFN gene signature score", "value": "reduction"}, {"measurement": "RNA-related reactivity such as anti-RiboP titers", "value": "particularly robust impact"}, {"measurement": "arthritis severity", "value": "reduced arthritis severity"}, {"measurement": "interferon gene signature score, comparison with three commonly used lupus treatments", "value": "suppressed the interferon gene signature score significantly"}, {"measurement": "various auto-antibodies", "value": "suppressed"}, {"measurement": "suppression of autoantibodies compared with hydroxychloroquine or prednisolone", "setting": "at the doses tested", "value": "better"}, {"measurement": "whole blood interferon-driven gene expression", "setting": "qPCR panel", "value": "reduction; also recorded: suppressed"}]}
